According to patent publication US4568690A, “1-Methyl-5-p-methylbenzoylpyrrole-2-acetamidoacetanilides with antiinflammatory, analgesic, antipyretic and anti-platelet aggregant activity” (priority 1983, dated 1986):
Where two headings read alike, the source gives them in different places.

Key:
carragenin-induced edema [1] = experiment: carragenin-induced edema test (antinflammatory activity); assay type: in vivo, rats
Experimental: (§1) Preparations of the compound were administered orally and/or parenterally in a suspension in 0.59% carboxymethylcellulose in pH neutral physiological saline.
This effect was evaluated with an experimental model reproducing actue inflammation in rats: the carragenin-induced edema test was used, according to the method of C. A. Winter (G. Pharmac. Exp. Ther., 141, 369 (1963)). Table III reports the compounds tested, their concentrations, administration routes and relative percent edema inhibition.

[2] = tested on: p-phenylquinone-induced writhing; experiment: p-phenylquinone-induced writhing test (analgesic activity); assay type: in vivo; details: an hour after administration
Experimental: as §1
The determination was made an hour after administration of the product. The inhibitory effect on abdominal contractions induced by phenyl-p-quinone was calculated as follows: [formula]
Table IV reports the doses, the administration routes and their effectiveness expressed as % protection.

[3] = tested on: hyperthermia induced by dry purified beer yeast; experiment: antipyretic activity, beer yeast-induced hyperthermia; assay type: in vivo, Wistar strain male albino rats
Experimental: as §1
This effect was evaluated by inducing hyperthermia in Wistar strain male albino rats with an average weight of 250±10 g, injecting them intraperitoneally with a 10% suspension of dry purified beer yeast (Carlo Erba) in a volume of 10 ml/Kg of body weight, according to the method of S. Wong et al. (J. Pharmac. Exp. Ther., 185 (1), 127 (1973)).

mouse = details: in vivo
in vivo = details: mouse
gastric mucosa = experiment: gastric tolerance (ulcerogenic activity); details: orally, four consecutive days; for Incidence % / 10: groups of 10 animals; for Mean number severity: severity scale 0-5
Experimental: This was studied by testing ulcerogenic activity in male Wistar rats weighing an average of 180 g, using groups of 10 animals each. Three doses of each substance were used, and one group of animals was treated with vehicle only, in a volume of 10 ml/g body weight. Each dose was administered orally for four consecutive days, and the rats were killed on the fifth day and autopsied. The ulcerogenic effect was evaluated on the following scale:
(1) each hemorrhage point >1 mm was evaluated as 1 lesion
(2) the hemorrhage points <1 were counted as follows:
(b) from 1 to 19 2 lesions
(c) from 1 to 29 3 lesions
(2) gastric mucosa irritation
(3) hemorrhage points <1 mm
(4) hemorrhage points from 1 to 3 mm
(5) hemorrhage points >3 mm
This scale was used to calculate the following index of gastric damage: [formula]

carragenin-induced edema [4] = details: background statement, prior ester; cited from earlier work
healthy animals = details: background statement, prior ester; cited from earlier work

SMILES: COc1ccc(OC)c(NC(=O)CNC(=O)Cc2ccc(C(=O)c3ccc(C)cc3)n2C)c1 [Compound 1g]
- Oedema inhibition % (carragenin-induced edema [1]; i.p., 10 mg/kg, 3 h): 35.6%
- Oedema inhibition % (carragenin-induced edema [1]; i.p., 10 mg/kg, 6 h): 37.0%
- Oedema inhibition % (carragenin-induced edema [1]; i.p., 10 mg/kg, 24 h): 0.0%
- Oedema inhibition % (carragenin-induced edema [1]; i.p., 50 mg/kg, 3 h): 50.1%
- Oedema inhibition % (carragenin-induced edema [1]; i.p., 50 mg/kg, 6 h): 50.0%
- Oedema inhibition % (carragenin-induced edema [1]; i.p., 50 mg/kg, 24 h): 6.1%
- Oedema inhibition % (carragenin-induced edema [1]; i.p., 100 mg/kg, 3 h): 71.0%
- Oedema inhibition % (carragenin-induced edema [1]; i.p., 100 mg/kg, 6 h): 71.5%
- Oedema inhibition % (carragenin-induced edema [1]; i.p., 100 mg/kg, 24 h): 22.9%
- Oedema inhibition % (carragenin-induced edema [1]; os, 10 mg/kg, 3 h): 30.4%
- Oedema inhibition % (carragenin-induced edema [1]; os, 10 mg/kg, 6 h): 37.9%
- Oedema inhibition % (carragenin-induced edema [1]; os, 10 mg/kg, 24 h): 1.2%
- Oedema inhibition % (carragenin-induced edema [1]; os, 50 mg/kg, 3 h): 51.4%
- Oedema inhibition % (carragenin-induced edema [1]; os, 50 mg/kg, 6 h): 49.0%
- Oedema inhibition % (carragenin-induced edema [1]; os, 50 mg/kg, 24 h): 7.9%
- Oedema inhibition % (carragenin-induced edema [1]; os, 100 mg/kg, 3 h): 72.3%
- Oedema inhibition % (carragenin-induced edema [1]; os, 100 mg/kg, 6 h): 70.0%
- Oedema inhibition % (carragenin-induced edema [1]; os, 100 mg/kg, 24 h): 25.1%
- Protection % ([2]; i.p., 5 mg/kg): 23.0%
- Protection % ([2]; i.p., 10 mg/kg): 56.9%
- Protection % ([2]; i.p., 20 mg/kg): 74.2%
- Protection % ([2]; os, 5 mg/kg): 20.1%
- Protection % ([2]; os, 10 mg/kg): 50.3%
- Protection % ([2]; os, 20 mg/kg): 76.0%
- Temperature decrease % ([3]; i.p., 50 mg/kg, 1 h): 26.0%
- Temperature decrease % ([3]; i.p., 50 mg/kg, 2 h): 27.0%
- Temperature decrease % ([3]; i.p., 50 mg/kg, 3 h): 26.0%
- Temperature decrease % ([3]; i.p., 75 mg/kg, 1 h): 32.1%
- Temperature decrease % ([3]; i.p., 75 mg/kg, 2 h): 34.5%
- Temperature decrease % ([3]; i.p., 75 mg/kg, 3 h): 40.0%
- Temperature decrease % ([3]; i.p., 100 mg/kg, 1 h): 39.1%
- Temperature decrease % ([3]; i.p., 100 mg/kg, 2 h): 46.0%
- Temperature decrease % ([3]; i.p., 100 mg/kg, 3 h): 41.0%
- Temperature decrease % ([3]; os, 50 mg/kg, 1 h): 17.1%
- Temperature decrease % ([3]; os, 50 mg/kg, 6 h): 27.1%
- Temperature decrease % ([3]; os, 50 mg/kg, 24 h): 29.1%
- Temperature decrease % ([3]; os, 75 mg/kg, 1 h): 19.6%
- Temperature decrease % ([3]; os, 75 mg/kg, 6 h): 30.1%
- Temperature decrease % ([3]; os, 75 mg/kg, 24 h): 43.1%
- Temperature decrease % ([3]; os, 100 mg/kg, 1 h): 23.1%
- Temperature decrease % ([3]; os, 100 mg/kg, 6 h): 33.0%
- Temperature decrease % ([3]; os, 100 mg/kg, 24 h): 42.1%
- DL50 (LD50) (mouse; ip): 1200 mg/kg
- DL50 (LD50) (mouse; po): 1470 mg/kg
- LD50 (in vivo; ip): 1430 mg/kg
- LD50 (in vivo; po): > 1500 mg/kg
- Index gastric damage (gastric mucosa; 50 mg/kg): 8
- Index gastric damage, signed figure (untitled; difference from Carrier index 8) (gastric mucosa; 50 mg/kg): +0
- Mean number lesions (gastric mucosa; 50 mg/kg): 1
- Incidence % / 10 (gastric mucosa; 50 mg/kg): 6 %/10
- Mean number severity (gastric mucosa; 50 mg/kg): 1
- Index gastric damage (gastric mucosa; 100 mg/kg): 11
- Index gastric damage, signed figure (untitled; difference from Carrier index 8) (gastric mucosa; 100 mg/kg): +3
- Mean number lesions (gastric mucosa; 100 mg/kg): 2
- Incidence % / 10 (gastric mucosa; 100 mg/kg): 7 %/10
- Mean number severity (gastric mucosa; 100 mg/kg): 2
- Index gastric damage (gastric mucosa; 200 mg/kg): 14
- Index gastric damage, signed figure (untitled; difference from Carrier index 8) (gastric mucosa; 200 mg/kg): +6
- Mean number lesions (gastric mucosa; 200 mg/kg): 3
- Incidence % / 10 (gastric mucosa; 200 mg/kg): 9 %/10
- Mean number severity (gastric mucosa; 200 mg/kg): 2

SMILES: COc1ccccc1OC(=O)CNC(=O)Cc1ccc(C(=O)c2ccc(C)cc2)n1C [Compound 4, 1-methyl-5-p-methylbenzoylpyrrole-2-acetamidoacetate of o-methoxyphenol]
- antinflammatory, analgesic, antipyretic, antisecretive and cough suppressing activity versus Tolmetin (in words) (carragenin-induced edema [4]): greater than that of Tolmetin
- duration of action versus Tolmetin (in words) (carragenin-induced edema [4]): longer lasting action
- toxicity versus Tolmetin (in words) (healthy animals): lower toxicity
